This is an account of results in PMC4821188 (Biological chemistry, 2010).

The target of this assay is Recombinant human furin (Homo sapiens, UniProt P09958). The class given is biochemical.

Several values for one entry are separate records, joined by “and”; a condition that tells them apart may be missing. Equal values may be shown once. *: point of attachment. AMC = Cc1cc(=O)oc2cc(N*)ccc12

Chain of Recombinant human furin (P09958 108-715 limits assumed): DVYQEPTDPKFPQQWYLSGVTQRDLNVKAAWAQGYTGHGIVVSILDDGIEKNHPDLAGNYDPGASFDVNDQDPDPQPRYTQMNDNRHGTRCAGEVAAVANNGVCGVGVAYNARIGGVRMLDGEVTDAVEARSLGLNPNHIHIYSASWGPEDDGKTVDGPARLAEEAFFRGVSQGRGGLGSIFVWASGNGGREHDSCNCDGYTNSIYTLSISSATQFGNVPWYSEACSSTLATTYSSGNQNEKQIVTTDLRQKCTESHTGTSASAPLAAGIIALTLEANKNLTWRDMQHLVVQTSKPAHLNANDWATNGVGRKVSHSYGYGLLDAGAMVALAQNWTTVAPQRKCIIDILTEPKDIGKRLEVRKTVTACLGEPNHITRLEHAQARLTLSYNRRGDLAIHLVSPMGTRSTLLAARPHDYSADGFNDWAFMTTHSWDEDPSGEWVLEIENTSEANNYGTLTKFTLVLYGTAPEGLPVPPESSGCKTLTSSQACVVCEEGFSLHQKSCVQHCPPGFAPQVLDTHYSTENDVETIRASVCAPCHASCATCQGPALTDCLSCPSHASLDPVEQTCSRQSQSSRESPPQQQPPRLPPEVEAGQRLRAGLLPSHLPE

The Km is the concentration of substrate that gives half-maximal velocity. Consider Abz-GIRRKRSVSHQ-EDDnp [compound 19], for which the “R: relative kcat/Km values in presence vs. absence of MgCl2” value (“R: relative kcat/Km values” for short) worked out at 0.9. Moreover, for the setting “pH 7”, the Michaelis constant (Km) was 0.42 µM and 0.39 µM; the kcat is listed as 29.6 (30.3) s^−1; the kcat/Km is 70547 (77100) (mM.s)^−1.
On to Abz-RERRRKKR↓GLFG-Q-EDDnp [peptide 48], for which the “R: relative kcat/Km values” value was 79. Besides, for the setting “pH 7”, the kcat was 12.3(2.6) s^−1 and the kcat/Km is 123000 (1555) (mM.s)^−1.
Take Abz-RRRKKR↓GLFG-Q-EDDnp [compound 31]: where the note is “pH 7”, the Km turned out to be 15.5 µM, the kcat came to 5.0 s⁻¹ and the kcat/Km is 322 mM/s.
As for Abz-SGRSRRAIDLQ-EDDnp [peptide 10], the “R: relative kcat/Km values” value was 3.0. Further, for the setting “pH 7”, the kcat is on record as 6.2 (4.3) s^−1 and the kcat/Km is 15923 (5328) (mM.s)^−1.
Consider “Ac-RVRR-{AMC} [compound 38, reference compound]”, for which the “R: relative kcat/Km values” value turned out to be 0.1. In addition, under “pH 7”, the kcat is given as 0.59 (0.98) s^−1 and the kcat/Km was 120 (1139) (mM.s)^−1.
On the same counts, the results for GQRKKR↓ALDT [compound 40] are 0.06, 3.6 (3.9) s^−1 and 829 (14130) (mM.s)^−1.
With HHRQRR↓SVSI [compound 37], the “R: relative kcat/Km values” value is 0.1. Further, under “pH 7”, the kcat is 28.9 (39.5) s^−1 and the kcat/Km is on record as 9031 (116088) (mM.s)^−1.
In the same order, the values of HKREKR↓QAKH [compound 39] are 0.1, 6.3 (6.9) s^−1 and 2354 (17734) (mM.s)^−1.
With HNRTKR↓STDG [compound 23], the “R: relative kcat/Km values” value is 28. For the setting “pH 7”, the Km was 0.95 µM and 0.87 µM; the kcat is listed as 7.8 (0.26) s^−1; the kcat/Km is listed as 8210 (289) (mM.s)^−1.
For HRRDKR↓SVAL [compound 17], the “R: relative kcat/Km values” value is 0.6. Besides, under “pH 7”, the kcat is listed as 12.7 (9.5) s^−1 and the kcat/Km is listed as 23091 (36615) (mM.s)^−1.
Take HRREKR↓SVAL [compound 16]: the “R: relative kcat/Km values” value turned out to be 0.7. Also, under “pH 7”, the Km was 0.2 µM and 0.22 µM; the kcat was 7.6 (12.2) s^−1; the kcat/Km is 38300 (55636) (mM.s)^−1.
For the substance HRRQKR↓SVAL [compound 14], the “R: relative kcat/Km values” value worked out at 1.2. Moreover, for the setting “pH 7”, the Km is 0.37 µM and 0.28 µM; the kcat was 14.9 (9.2) s^−1; the kcat/Km was 40270 (32431) (mM.s)^−1.
Take KIRRRR↓DVVD [compound 26]: the “R: relative kcat/Km values” value amounted to 8.9. Under “pH 7”, the Km was 0.05 µM and 0.1 µM; the kcat was 3.1 (0.60) s^−1; the kcat/Km is given as 53448 (6000) (mM.s)^−1.
For KKRKRR↓FLGF [compound 33], the “R: relative kcat/Km values” value is reported as 4.2. Under “pH 7”, the kcat is 1.1 (0.64) s^−1 and the kcat/Km is given as 2173 (512) (mM.s)^−1.
As to KRRQRR↓RPPQ [compound 21], where the note is “pH 7”, the “hydrolysis by furin (result in words, cell spans kcat, Km, kcat/Km and R)” value is “Slow Hydrolysis”.
LKRRRR↓DTQQ [compound 30]: the “R: relative kcat/Km values” value is listed as 0.6. For the setting “pH 7”, the kcat is 6.7 (0.61) s^−1 and the kcat/Km is given as 1303 (2184) (mM.s)^−1.
With LRRRRR↓DAGN [compound 25], the “R: relative kcat/Km values” value stood at 9.9. Moreover, where the note is “pH 7”, the Km is 3.6 µM and 3.3 µM; the kcat is 12.3 (1.1) s^−1; the kcat/Km is listed as 3455 (348) (mM.s)^−1.
On to LTRQRR↓SLLP [compound 8], for which the “R: relative kcat/Km values” value was 1.3. Also, under “pH 7”, the Km was 0.9 µM and 0.64 µM; the kcat is recorded as 3.3 (1.8) s^−1; the kcat/Km is 3510 (2708) (mM.s)^−1.
